Source: article PMC11440508, “Dually Labeled Neurotensin NTS1R Ligands for Probing Radiochemical and Fluorescence-Based Binding Assays” (Journal of Medicinal Chemistry, 2024)
“Also recorded” adds a separate entry of the source.

Experiments:
[1] = Chemical stability in PBS (pH 7.4); format: physicochemical; conditions: PBS pH 7.4, room temperature, up to 48 h, RP-HPLC
Procedure: The chemical stability of peptides 13 and 18 was investigated in PBS (adjusted to pH 7.4) at 22 °C in the dark. The incubation was started by the addition of 15 μL of a 1 mM stock solution (solvent: DMSO) to 135 μL of PBS to yield a concentration of 100 μM. After periods of 0, 6, 24, and 48 h, an aliquot (25 μL) was removed and added to 25 μL of acetonitrile/0.04% aqueous TFA 1:9 v/v to obtain a peptide solution with a concentration of 50 μM. 20 μL of this solution were subjected to analytical RP-HPLC analysis using the same system and conditions as described under Analytical HPLC with the following gradient: 0–14 min: acetonitrile/0.04% aqueous TFA 10:90–30:70, 14–15 min: 30:70–95:5, 15–20 min: 95:5 (isocratic). A 1:1 mixture of PBS and acetonitrile/0.04% aqueous TFA 1:9 v/v (20 μL) was analyzed to obtain the blank chromatogram.

NTS1R = NTS1R (Homo sapiens, UniProt P30989); experiment: High-content imaging (HCI) saturation binding, adherent CHO-hNTS1R cells; conditions: 23 °C
Chain of NTS1R (P30989 whole entry): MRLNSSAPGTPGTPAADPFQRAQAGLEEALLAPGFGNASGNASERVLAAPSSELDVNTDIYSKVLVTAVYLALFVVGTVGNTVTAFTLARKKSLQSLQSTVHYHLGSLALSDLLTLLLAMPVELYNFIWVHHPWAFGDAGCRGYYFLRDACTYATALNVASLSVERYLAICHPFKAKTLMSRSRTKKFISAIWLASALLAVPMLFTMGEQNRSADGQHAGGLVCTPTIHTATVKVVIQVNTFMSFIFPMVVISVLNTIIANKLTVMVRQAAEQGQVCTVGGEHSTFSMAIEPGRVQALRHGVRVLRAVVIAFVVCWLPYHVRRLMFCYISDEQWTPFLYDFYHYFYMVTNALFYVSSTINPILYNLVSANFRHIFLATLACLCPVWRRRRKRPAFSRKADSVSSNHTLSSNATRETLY
Procedure: CHO-hNTS1R or HT-29 cells were seeded one day prior to the experiment into the inner 60 wells of a black clear-bottom 96-well plate (Greiner 655090, Greiner Bio-One) at a concentration of 25,000 cells/well and 35,000 cells/well, respectively. On the day of the assay, the medium was removed by suction and the cells were washed with DPBS1 (50 μL). After this step, DPBS1 (180 or 200 μL) containing the nuclear dye Hoechst H33342 (2 μg/mL) was added. This solution also contained the fluorescent ligand (kinetic studies, competition binding experiments), or the fluorescent ligand was added separately (saturation binding experiments). […] Shortly before subjecting the plate to the plate reader for image acquisition, the liquid was removed by suction and DPBS1 (100 μL) was added. Images were acquired using an IX Micro plate reader (Molecular Devices, Sunnyvale, CA) using a 20× Plan Fluor ELWD objective, a xenon lamp light source and DAPI and TRITC excitation/emission filter cubes for imaging nuclear and fluorescent ligand staining, respectively. […] Two sites/well were measured throughout. Images were analyzed by granularity analysis (2–3 μm diameter granules; MetaXpress 5.3, Molecular Devices, San Diego, CA) and the integrated intensity (pixel intensity × granule area) per cell was used as the raw measurement of fluorescent ligand binding. […]

Row | SMILES | chemical stability in PBS [1] | Kd (NTS1R)
1 | CCC(=O)NCCCCNC(=O)NC(=N)NCCC[C@H](NC(=O)[C@@H]1CCCN1C(=O)[C@@H](NC(=O)CCc1cn(CCCNC(=O)CCC#Cc2ccc3c(c2)C(C)(C)C2=C4C=C5C6=[N+](CCC5OC4CCN23)c2ccc(S(=O)(=O)[O-])cc2C6(C)C)nn1)C1CCNCC1)C(=O)N[C@@H](CCCNC(=N)N)C(=O)N1CCC[C@H]1C(=O)N[C@H](C(=O)N[C@H](C(=O)N[C@@H](CC(C)C)C(=O)O)[C@@H](C)CC)C(C)(C)c1ccc(O)cc1 (stereo partly drawn) [Compound 18, N^α-(3-(N-(1-(8-Sulfonato-5,5,27,27-tetramethyl-16-oxa-20-aza-12-azoniaheptacyclo[15.11.0.03,15.04,12.06,11.020,28.021,26]octacosa-1(28),2,4(12),6(11),7,9,21(26),22,24-nonaen-24-yl)-5-oxopentyn-5-yl)-1-aminoprop-3-yl-1H-1,2,3-triazol-4-yl)propanoyl)-2-(piperidin-4-yl)-Gly-Pro-N^ω-[(4-(N-propanoyl)aminobutyl)aminocarbonyl]Arg-Arg-Pro-β,β-dimethyl-L-Tyr-Ile-Leu Tris(hydrotrifluoroacetate)] | highly stable over 48 h; also recorded: no decomposition | 1.3 ± 0.3 nM
2 | CCC(=O)NCCCCNC(=O)N=C(N)NCCC[C@H](NC(=O)[C@@H]1CCCN1C(=O)[C@@H](NC(=O)CCc1cn(CCCNC(=O)c2ccc(-c3c4ccc(=[N+](C)C)cc-4oc4cc(N(C)C)ccc34)c(C(=O)[O-])c2)nn1)C1CCNCC1)C(=O)N[C@@H](CCCNC(=N)N)C(=O)N1CCC[C@H]1C(=O)N[C@@H](Cc1ccc(O)cc1)C(=O)N[C@H](C(=O)N[C@@H](CC(C)C)C(=O)O)[C@@H](C)CC [Compound 13, N^α-(3-(1-N-((1-Carboxylato-2-(6-(dimethylamino)-3-(dimethyliminio)-3H-xanthen-9-yl)phen-5-yl)1-oxomethyl)aminoprop-3-yl-1H-1,2,3-triazol-4-yl)propanoyl)-2-(piperidin-4-yl)-Gly-Pro-N^ω-[(4-(N-propanoyl)aminobutyl)aminocarbonyl]Arg-Arg-Pro-Tyr-Ile-Leu Tris(hydrotrifluoroacetate)] | high stability; also recorded: very slow degradation observable after 24 h | 1.1 ± 0.2 nM
